# In ChEMBL document CHEMBL1201862, “PubChem BioAssay data set” (2004):
#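 Tested at 5 concentrations; 48 h exposure; 96-well plates; endpoints linearly interpolated, else capped at highest concentration. The concentration for 50% growth inhibition is given as GI50.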 Active and inactive are the calls of the source. Cut-off read from the data, not from the text of the source: active = GI50 up to about 1.1 µM and inactive = higher.
# Legend:
# Experiment in all cases: NCI-60 cell line screen, 48 h
# 786-0 = tested on: 786-0
# A498 = tested on: A498
# A549 = tested on: A549
# ACHN = tested on: ACHN
# CAKI-1 = tested on: CAKI-1
# CCRF-CEM = tested on: CCRF-CEM
# COLO 205 = tested on: COLO 205
# DLD-1 = tested on: DLD-1
# DMS-114 = tested on: DMS-114
# DMS-273 = tested on: DMS-273
# EKVX = tested on: EKVX
# HCC 2998 = tested on: HCC 2998
# HCT-116 = tested on: HCT-116
# HCT-15 = tested on: HCT-15
# HL-60 = tested on: HL-60
# HOP-18 = tested on: HOP-18
# HOP-62 = tested on: HOP-62
# HOP-92 = tested on: HOP-92
# HT-29 = tested on: HT-29
# IGROV-1 = tested on: IGROV-1
# K562 = tested on: K562
# KM-20L2 = tested on: KM-20L2
# KM12 = tested on: KM12
# LOX IMVI = tested on: LOX IMVI
# LXFL 529 = tested on: LXFL 529
# M14 = tested on: M14
# M19-MEL = tested on: M19-MEL
# MOLT-4 = tested on: MOLT-4
# Malme-3M = tested on: Malme-3M
# NCI-H226 = tested on: NCI-H226
# NCI-H23 = tested on: NCI-H23
# NCI-H460 = tested on: NCI-H460
# NCI-H522 = tested on: NCI-H522
# OVCAR-3 = tested on: OVCAR-3
# OVCAR-4 = tested on: OVCAR-4
# OVCAR-5 = tested on: OVCAR-5
# OVCAR-8 = tested on: OVCAR-8
# RXF 393 = tested on: RXF 393
# RXF 631 = tested on: RXF 631
# SF-268 = tested on: SF-268
# SF-295 = tested on: SF-295
# SF-539 = tested on: SF-539
# SK-MEL-28 = tested on: SK-MEL-28
# SK-MEL-2 = tested on: SK-MEL-2
# SK-MEL-5 = tested on: SK-MEL-5
# SK-OV-3 = tested on: SK-OV-3
# SN12C = tested on: SN12C
# SNB-19 = tested on: SNB-19
# SNB-75 = tested on: SNB-75
# SNB-78 = tested on: SNB-78
# SR = tested on: SR
# TK-10 = tested on: TK-10
# U-251 = tested on: U-251
# UACC-257 = tested on: UACC-257
# UACC-62 = tested on: UACC-62
# UO-31 = tested on: UO-31
# XF498 = tested on: XF498
# RPMI-8226 = tested on: RPMI-8226
# SW-620 = tested on: SW-620
compound,measurement,setting,value
CCOC(=O)c1sc2c(sc(=O)n2-c2ccccc2)c1O,GI50,786-0,> 100 µM (inactive)
same,GI50,A498,> 100 µM (inactive)
same,GI50,A549,> 100 µM (inactive)
same,GI50,ACHN,> 100 µM (inactive)
same,GI50,CAKI-1,> 100 µM (inactive)
same,GI50,CCRF-CEM,45 µM (inactive)
same,GI50,COLO 205,45.3 µM (inactive)
same,GI50,DLD-1,46.3 µM (inactive)
same,GI50,DMS-114,98.9 µM (inactive)
same,GI50,DMS-273,29.4 µM (inactive)
same,GI50,EKVX,> 100 µM (inactive)
same,GI50,HCC 2998,> 100 µM (inactive)
same,GI50,HCT-116,> 100 µM (inactive)
same,GI50,HCT-15,> 100 µM
same,GI50,HL-60,> 100 µM (inactive)
same,GI50,HOP-18,> 100 µM (inactive)
same,GI50,HOP-62,> 100 µM (inactive)
same,GI50,HOP-92,> 100 µM (inactive)
same,GI50,HT-29,> 100 µM (inactive)
same,GI50,IGROV-1,> 100 µM (inactive)
same,GI50,K562,> 100 µM (inactive)
same,GI50,KM-20L2,> 100 µM (inactive)
same,GI50,KM12,> 100 µM (inactive)
same,GI50,LOX IMVI,55.7 µM (inactive)
same,GI50,LXFL 529,> 100 µM (inactive)
same,GI50,M14,> 100 µM (inactive)
same,GI50,M19-MEL,> 100 µM (inactive)
same,GI50,MOLT-4,> 100 µM (inactive)
same,GI50,Malme-3M,> 100 µM (inactive)
same,GI50,NCI-H226,> 100 µM (inactive)
same,GI50,NCI-H23,65.8 µM (inactive)
same,GI50,NCI-H460,> 100 µM (inactive)
same,GI50,NCI-H522,> 100 µM (inactive)
same,GI50,OVCAR-3,88.7 µM (inactive)
same,GI50,OVCAR-4,> 100 µM (inactive)
same,GI50,OVCAR-5,> 100 µM (inactive)
same,GI50,OVCAR-8,> 100 µM (inactive)
same,GI50,RXF 393,> 100 µM (inactive)
same,GI50,RXF 631,58.6 µM (inactive)
same,GI50,SF-268,> 100 µM (inactive)
same,GI50,SF-295,> 100 µM (inactive)
same,GI50,SF-539,> 100 µM (inactive)
same,GI50,SK-MEL-28,> 100 µM (inactive)
same,GI50,SK-MEL-2,> 100 µM (inactive)
same,GI50,SK-MEL-5,> 100 µM (inactive)
same,GI50,SK-OV-3,> 100 µM (inactive)
same,GI50,SN12C,> 100 µM (inactive)
same,GI50,SNB-19,> 100 µM (inactive)
same,GI50,SNB-75,> 100 µM (inactive)
same,GI50,SNB-78,> 100 µM (inactive)
same,GI50,SR,67.6 µM (inactive)
same,GI50,TK-10,> 100 µM (inactive)
same,GI50,U-251,> 100 µM (inactive)
same,GI50,UACC-257,> 100 µM (inactive)
same,GI50,UACC-62,> 100 µM (inactive)
same,GI50,UO-31,> 100 µM (inactive)
same,GI50,XF498,> 100 µM (inactive)
O=C1/C(=C(\Nc2ccccc2)c2ccccc2)C=NN1c1ccccc1,GI50,786-0,> 100 µM (inactive)
same,GI50,A498,> 100 µM (inactive)
same,GI50,A549,> 100 µM (inactive)
same,GI50,ACHN,61 µM (inactive)
same,GI50,CAKI-1,> 100 µM (inactive)
same,GI50,CCRF-CEM,> 100 µM (inactive)
same,GI50,COLO 205,> 100 µM (inactive)
same,GI50,DLD-1,> 100 µM (inactive)
same,GI50,DMS-114,50.6 µM (inactive)
same,GI50,DMS-273,61.8 µM (inactive)
same,GI50,EKVX,> 100 µM (inactive)
same,GI50,HCC 2998,> 100 µM (inactive)
same,GI50,HCT-15,> 100 µM
same,GI50,HL-60,17.7 µM (inactive)
same,GI50,HOP-18,< 0.01 µM (active)
same,GI50,HT-29,47.9 µM (inactive)
same,GI50,IGROV-1,> 100 µM (inactive)
same,GI50,K562,72.8 µM (inactive)
same,GI50,KM-20L2,> 100 µM (inactive)
same,GI50,KM12,> 100 µM (inactive)
same,GI50,LOX IMVI,> 100 µM (inactive)
same,GI50,LXFL 529,> 100 µM (inactive)
same,GI50,M14,> 100 µM (inactive)
same,GI50,MOLT-4,29.3 µM (inactive)
same,GI50,Malme-3M,59 µM (inactive)
same,GI50,NCI-H23,56.8 µM (inactive)
same,GI50,NCI-H460,96.4 µM (inactive)
same,GI50,NCI-H522,> 100 µM (inactive)
same,GI50,OVCAR-4,76.9 µM (inactive)
same,GI50,OVCAR-5,> 100 µM (inactive)
same,GI50,OVCAR-8,> 100 µM (inactive)
same,GI50,RPMI-8226,40.8 µM (inactive)
same,GI50,RXF 393,22.1 µM (inactive)
same,GI50,RXF 631,> 100 µM (inactive)
same,GI50,SF-268,> 100 µM (inactive)
same,GI50,SF-295,> 100 µM (inactive)
same,GI50,SF-539,> 100 µM (inactive)
same,GI50,SK-MEL-28,> 100 µM (inactive)
same,GI50,SK-MEL-2,> 100 µM (inactive)
same,GI50,SK-MEL-5,26.7 µM (inactive)
same,GI50,SK-OV-3,> 100 µM (inactive)
same,GI50,SN12C,> 100 µM (inactive)
same,GI50,SNB-19,> 100 µM (inactive)
same,GI50,SNB-75,> 100 µM (inactive)
same,GI50,SNB-78,> 100 µM (inactive)
same,GI50,SW-620,> 100 µM (inactive)
same,GI50,TK-10,> 100 µM (inactive)
same,GI50,U-251,> 100 µM (inactive)
same,GI50,UACC-257,> 100 µM (inactive)
same,GI50,UACC-62,> 100 µM (inactive)
same,GI50,UO-31,> 100 µM (inactive)
same,GI50,XF498,> 100 µM (inactive)
COCOCCCCCO[Si](C)(C)C(C)(C)C,GI50,786-0,14.4 µM (inactive)
same,GI50,A498,29.4 µM (inactive)
same,GI50,A549,19.5 µM (inactive)
same,GI50,ACHN,14.4 µM (inactive)
same,GI50,CCRF-CEM,16.7 µM (inactive)
same,GI50,COLO 205,19 µM (inactive)
same,GI50,DLD-1,31.6 µM (inactive)
same,GI50,DMS-114,17.5 µM (inactive)
same,GI50,EKVX,20 µM (inactive)
same,GI50,HCC 2998,17.7 µM (inactive)
same,GI50,HCT-116,12.9 µM (inactive)
same,GI50,HCT-15,17.7 µM
same,GI50,HL-60,7.1 µM (inactive)
same,GI50,HOP-18,30.8 µM (inactive)
same,GI50,HOP-92,17.7 µM (inactive)
same,GI50,HT-29,14.4 µM (inactive)
same,GI50,IGROV-1,32.6 µM (inactive)
same,GI50,K562,26.4 µM (inactive)
same,GI50,KM-20L2,22.8 µM (inactive)
same,GI50,KM12,23.2 µM (inactive)
same,GI50,LOX IMVI,16.5 µM (inactive)
same,GI50,LXFL 529,26.9 µM (inactive)
same,GI50,M14,19 µM (inactive)
same,GI50,M19-MEL,28.7 µM (inactive)
same,GI50,MOLT-4,16.1 µM (inactive)
same,GI50,Malme-3M,18.2 µM (inactive)
same,GI50,NCI-H23,17.2 µM (inactive)
same,GI50,NCI-H460,19.6 µM (inactive)
same,GI50,NCI-H522,13.7 µM (inactive)
same,GI50,OVCAR-3,14.4 µM (inactive)
same,GI50,OVCAR-5,16.9 µM (inactive)
same,GI50,OVCAR-8,19.5 µM (inactive)
same,GI50,RPMI-8226,16.5 µM (inactive)
same,GI50,RXF 393,16.6 µM (inactive)
same,GI50,RXF 631,19.4 µM (inactive)
same,GI50,SF-268,5.19 µM (inactive)
same,GI50,SF-295,14.8 µM (inactive)
same,GI50,SF-539,19.1 µM (inactive)
same,GI50,SK-MEL-28,35.1 µM (inactive)
same,GI50,SK-MEL-2,16 µM (inactive)
same,GI50,SK-MEL-5,16.5 µM (inactive)
same,GI50,SK-OV-3,40.6 µM (inactive)
same,GI50,SN12C,17.2 µM (inactive)
same,GI50,SNB-19,16 µM (inactive)
same,GI50,SNB-75,30.3 µM (inactive)
same,GI50,SNB-78,22.8 µM (inactive)
same,GI50,SR,18.2 µM (inactive)
same,GI50,SW-620,17.3 µM (inactive)
same,GI50,TK-10,33 µM (inactive)
same,GI50,U-251,15.8 µM (inactive)
same,GI50,UACC-257,16.5 µM (inactive)
same,GI50,UACC-62,25.3 µM (inactive)
same,GI50,UO-31,20.5 µM (inactive)
same,GI50,XF498,15.7 µM (inactive)
